Results as given in patent US8940911B2, “Squarylated lactones inhibitors for bacterial biofilm formation” (Syracuse University, priority 2012, dated 2015).

Tested on: DsRed-express-labeled E. coli RP437
Experiment: Confocal imaging of E. coli biofilms on stainless steel coupons (COMSTAT)
Format: cell-based, Escherichia coli
Details: 200 μM, 24 h at 37° C., CLSM/COMSTAT
Procedure: The effects of SHLs upon the bacterial biofilm were examined; more specifically, the effect of SHLs upon the biofilm architecture. […] These studies were conducted by static biofilm assays employing crystal violet staining that indicates the total biomass that resides within a biofilm but provides no indication regarding the topology of the biofilms. To elucidate the topological features assumed by the E. coli RP437 biofilm in the presence of SHLs and BF8 48, studies of biofilms consisting of DsRed-express-labeled E. coli RP437 that is fluorescent and can be easily visualized by confocal laser scanning microscopy (CLSM) were performed. […] Further, the stacked images in vinyl-SHL 3 indicating the maximum thickness of the biofilm is considerably smaller than the biofilms in BF8 48 and the untreated E. coli samples. We developed the biofilms consisting of DsRed-express-labeled E. coli on stainless steel coupons (316 L, 1 in×1 in.) for 24 h at 37° C. that were treated with BF8 48 or SHLs or were left untreated. All the samples were analyzed with CLSM (see FIG. 8) and the maximum thickness of biofilms calculated using the COMSTAT software. […] Moreover, butyl-SHL 8 and butoxy-SCPA 46 reduce the biofilm thickness by 38% and 27%, respectively.
An overnight culture of E. coli RP437 pRSH103 grown in LB media (OD600 of 1.0) containing tetracycline (3 μg/mL) was subsequently sub-cultured to an OD600 of 0.04 (1:100 dilution with LB media). To each well in the solvent resistant polypropylene or polystyrene-based 24-well microtiter plates was added 200 μM synthetic molecules in DMSO solution respectively. In addition, to each of the wells containing the known concentrations of synthetic molecules was added 2 mL of the sub-cultured bacteria and the contents in each well were gently mixed. […] The fluorescent emission was detected with a LP 560 nm emission filter. The coupons were gently placed upside down on a microscope cover glass (24×60 mm, No. 2, VWR International LLC, West Chester, Pa., USA) and analyzed with CLSM. […]

| Structure (SMILES) | reduction of the maximum thickness of biofilm |
| --- | --- |
| CC1=C(Br)/C(=C/Br)OC1=O [BF8 48, reference compound] | 17% |
| CCCCOc1c(NC2CCCC2)c(=O)c1=O [butoxy-SCPA 46] | 27% |
